Organism: Rattus norvegicus
Experiment: Compound was evaluated for percent inhibition of antiarrhythmic activity catalyzed by cytochrome P-450 UT-H in liver microsomes of rats
Type: functional
Settings: dose or concentration not given here

In the case of `C1CCN2C[C@@H]3C[C@@H](CN4CCCC[C@@H]34)[C@H]2C1`, the inhibition is reported as > 95%.

From ChEMBL document CHEMBL1122717, “Oxidation of sparteines by cytochrome P-450: evidence against the formation of N-oxides” (J Med Chem, 1984)
